Tests used:
TGF beta-1 = test: IHC TGF beta-1 in posterior stroma after Descemetorhexis; format: in vivo, New Zealand White rabbits; details: topical and/or oral losartan
Protocol: (§1) Duplex immunohistochemistry (IHC) was performed after masking of slides by a researcher not involved in the analysis using previously described methods (de Oliveira et al., 2021) using primary antibodies (Table 2) confirmed by western blotting and IHC to recognize rabbit antigens or isotypic control antibodies (ThermoFisher Scientific, Waltham, MA), and secondary fluorescent tagged antibodies (Table 3).
The AB769 (Millipore, Temecula CA) collagen type IV antibody used in this study was generated against purified human and bovine collagen type IV, affinity purified with human and bovine collagen type IV crosslinked to agarose and cross-absorbed by the manufacturer with human and bovine collagens type I, II, III, V and VI to eliminate cross-reactivity. This antibody was shown previously to bind rabbit collagen IV in IHC (Sampaio et al., in press). The keratocan antibody was raised against peptide H2N-[…]-OH (SEQ ID NO:1).

collagen type IV [1] = test: IHC collagen type IV intensity in posterior stroma (ImageJ) after Descemetorhexis; format: in vivo, New Zealand White rabbits; details: one month
Protocol: as §1
The AB769 (Millipore, Temecula CA) collagen type IV antibody used in this study was generated against purified human and bovine collagen type IV, affinity purified with human and bovine collagen type IV crosslinked to agarose and cross-absorbed by the manufacturer with human and bovine collagens type I, II, III, V and VI to eliminate cross-reactivity. This antibody was shown previously to bind rabbit collagen IV in IHC (Sampaio et al., in press). […]
Collagen type IV intensity in immunohistochemistry images was quantitated in 0.75 W×0.5H rectangles of posterior stroma tangent to the posterior corneal surface using ImageJ on 7.62 cm wide×5.69 cm height and 300 DPI images generated using standardized microscopic illumination settings applied to all sections. The quantitation rectangles were positioned such that the posterior side of the rectangle was tangent to the posterior corneal surface just anterior to Descemet's membrane, if one was present, in the analysed specimens. […]

collagen type IV [2] = test: IHC stromal collagen type IV pixels (ImageJ) one month after -9D PRK; format: in vivo, New Zealand white rabbits
Protocol: Rabbits were euthanized while under ketamine-xylazine general anesthesia with 100 mg/kg Beuthanasia (Shering-Plough, Kenilworth, NJ, USA) by intravenous injection followed by bilateral pneumothorax. The corneo-scleral rims were removed with sharp Westcott scissors (Fairfield, CT, USA) and 0.12 forceps (Storz, St Louis, MO, USA). The corneo-scleral rim was then centered in a 24-mm×24-mm×5-mm mold (Fisher Scientific, Pittsburgh, PA, USA) that was filled with optimal cutting temperature (OCT) compound (Sakura Finetek, Torrance, CA, USA) and quick frozen on dry ice. Blocks were stored at −80° C. until sectioning. Blocks were bisected at the center of the cornea and 10-pm-thick transverse sections were cut from the central cornea with a cryostat (HM 505M; Micron 5 GmbH, Walldorf, Germany). Three sections from each cornea were placed on each 25-mm×75-mm×1-mm Superfrost Plus microscope slide (Fisher Scientific). Slides with sections were maintained at −20° C. prior to immunohistochemistry (IHC).
All images were converted to 300 DPI 900 pixel width×672 pixel height images with Photoshop 22.1.1 (Adobe, San Jose, CA). The mean pixels of stromal α-SMA or stromal collagen type IV were determined in a 900-pixel wide×235-pixel high rectangle (for either α-SMA or collagen type IV quantitation) with ImageJ in three sections for each cornea using the image panels showing only the color of interest. […]

[3] = system: rabbit corneas after -9D PRK; test: Slit lamp central opacity (ImageJ) one month after -9D PRK; format: in vivo, New Zealand white rabbits; details: topical 0.2 mg/ml six times a day, vehicle 93±6
Protocol: Animal procedures were approved by the Institutional Animal Care and Use Committee at the Cleveland Clinic Foundation and animals were treated in accordance with the tenets of the Association for Research in Vision and Ophthalmology Statement for the Use of Animals in Ophthalmic and Vision Research. Twelve female 12- to 15-week-old New Zealand white rabbits weighing 2.5 to 3 kg each were included. Starting 24 hours prior to surgery and continuing 5 days after PRK, all rabbits received 60 mL children's liquid acetaminophen (Johnson & Johnson, Ft. Washington, PA, USA) per 1 L of drinking water. One eye of each rabbit was randomly selected to have −9.0 D (on myopia scale) PRK and received 2 drops of topical 1% proparacaine hydrochloride (Alcon, Fort Worth, TX, USA) prior to the surgery. […]
At 1 month after PRK and treatment, each rabbit was placed under ketamine-xylazine general anesthesia and the eyes were dilated with two drops of 1% tropicamide (Akorn Co., Lake Forest, IL, USA) for 30 minutes. […] For each study cornea, the mean opacity in pixels in the central 3.5 mm of the PRK ablated zone was determined by using ImageJ 1.53a analysis software (National Institutes of Health, Bethesda, MD, USA).

Question: For `CCCCc1nc(Cl)c(CO)n1Cc1ccc(-c2ccccc2-c2nn[nH]n2)cc1` [losartan], which “levels of TGF beta-1 in the posterior stroma or at the posterior stromal surface vs vehicle” value (TGF beta-1) is on record?
Answer: No effect

Question: What about the “posterior stromal collagen type IV production vs topical and oral vehicle” value (collagen type IV [1]; topical and oral losartan) of the same molecule?
Answer: significantly decreased

Question: What about the “posterior stromal collagen type IV production vs topical and oral vehicle” value (collagen type IV [1]; topical losartan) of the same molecule?
Answer: significantly decreased

Question: What about the “collagen type IV detected in the underlying anterior stroma (IHC) compared with vehicle” value (collagen type IV [2]) of the same molecule?
Answer: far smaller amounts

Question: And the “mean pixels of opacity within the central 3.5 mm diameter area (mean±SEM)” value [3]?
Answer: 77±3 pixels
